Measurements reported in patent US8541670B2, “Compositions and methods for inhibiting tumor cell growth” (priority 2007, dated 2013).
Where no end group is shown, it is not given here.

Legend:
PKAc = target: T1, PKAc (Homo sapiens, UniProt P17612); assay: Independent kinase assays on catalytic activity of PKAc; format: biochemical
T1 construct: purchased Upstate Biotechnology
Description: Of particular interest with regard to inhibitory activity toward AKT was peptide […](SEQ ID NO:60) which flanked the Thr-197 phosphorylation site of PKAc. […] Furthermore, the inhibitory effect of ZaTa peptide was compared with an adjacent peptide ([…] SEQ ID NO:59), a peptide that overlaps with the 11 N-terminal amino acid residues of the ZaTa peptide and carries the Thr-197 phosphorylation site. In this assay, the level of incorporation of −^32 P into Ser-21 GSK-3[…] substrate peptide was used as the measure of AKT1 in vitro catalytic activity.
For non-radioactive kinase assays, typically 25 ng of active AKT1 or PKAc (Upstate Biotechnology) was used in a kinase assay reaction buffer (20 mM MOPS, pH 7.2, 25 mM […]-glycerophosphate, 5 mM EGTA, 1 mM Na3VO4, 1 mM dithiothreitol, 75 mM MgCl2, and 0.5 mM ATP) in the presence of either 1 μL of Ser-9 GSK-3 GST fusion protein (Cell Signaling), or recombinant DARPP-32 (10 μg). […] A 5 μL aliquot of the reaction was transferred to phosphocellulose paper, washed for 30 minutes with dH2O, and CPM of samples read in scintillation counter.

PKA, PKC, CDKs = assay: In vivo phosphorylation of substrates of PKA, PKC, CDKs (consensus-site phospho-specific antibodies); set-up: species or system mouse; settings: after in vivo injection
Protocol: To analyze in vivo selectivity, ZaTa was injected into one hemisphere and DMSO in the other hemisphere, as above, and a series of western blot analyses was preformed with phospho-specific antibodies which recognize a phosphorylated substrate or each one of the kinases that ZaTa inhibited at higher concentrations in vitro. […] Given the high functional and structural homology between p70S6K and AKT, the in vivo inhibitory effect of ZaTa on p70S6K was contemplated. Furthermore, the in vivo effect of ZaTa on the phosphorylation levels of substrates for PKA, PKC, CDKs using phospho-specific antibodies recognizing the phosphorylated consensus sites of these kinases was analyzed. In contrast to the consistent decrease in phosphorylation of AKT substrates, significant changes in the phosphorylation level of PKA, PKC and CDKs substrates was not observed after in vivo injection of ZaTa. […]

N2a cells = assay: MTT cell proliferation assay; format: cell-based
Protocol: In histogram series 2, treatments were removed after 24 hours and cells were incubated for another 24 hours without treatment. […] Mitochondrial activity (reflecting cellular growth and viability) in the presence of ZaTa and ZaTa variants (ZaTa T10D, ZaTa T8D, ZaTa T14R, and ZaTa Y17T) was evaluated by measuring the optical density (“OD”) at 490 nm on a plate reader. ZaTa T10D refers to a ZaTa polypeptide variant in which the Threonine (T) at position 10 of SEQ ID NO: 60 is substituted by an Aspartic Acid (D). ZaTa T8D refers to a ZaTa polypeptide variant in which the Threonine (T) at position 8 of SEQ ID NO: 60 is substituted by an Aspartic Acid (D). ZaTa T14R refers to a ZaTa polypeptide variant in which the Threonine (T) at position 14 of SEQ ID NO: 60 is substituted by an Arginine (R). ZaTa Y17T refers to a ZaTa polypeptide variant in which the Tyrosine (Y) at position 17 of SEQ ID NO: 60 is substituted by an Threonine (T).
AKT affects a network that positively regulates G1/S cell cycle progression through several mechanisms that involve the expression and subcellular localization of the CDK inhibitor p27^Kip1 (Blain and Massague (2002) Nat. Med. 8:1076-1078; Liang, et al. (2002) supra; Shin, et al. (2002) supra; Viglietto, et al. (2002) supra). Based on these studies, the effect of ZaTa peptide on cell proliferation was assessed. […] Capturing live images of cultured N2a cells in the presence of different concentrations of the ZaTa peptide confirmed an obvious reduction in the number of dividing cells.
Based on the importance of the C-terminal arm of ZaTa for its inhibitory action on AKT, it was determined whether the free hydroxyl groups on residues Thr-8, Thr-10 (equivalent to Thr-197 in full-length PKAc), Thr-14 and Tyr-17 were important for the biological activity of this peptide. Mutants of ZaTa peptide were synthesized by replacing Thr-8 or Thr-10 residues with Asp (ZaTa^T8D and ZaTa^T10D, respectively) as an amino acid with a negatively charged side chain. Mutants of ZaTa with the hydrophilic positively charged amino acid Arg at either position Thr-14 or Tyr-17 (ZaTa^T14R and ZaTa^Y17R, respectively) were also synthesized. […] The inhibitory effect of ZaTa peptide on cell proliferation was reversible, to a large extent, after the removal of ZaTa treatment (FIG. 3, histogram series 2).
Cells (5×10^3) were incubated in 96-well plates in the presence of different concentrations of the ZaTa peptide, control peptide or DMSO as vehicle. Media was removed at different time intervals and replaced with media containing MTT (5 mg/mL), and incubated for one hour at 37° C. […] The activity of the mitochondria, reflecting cellular growth and viability, was evaluated by measuring the optical density at 490 nm on a plate reader.

In the case of AKRVKGRTWTLCGTPEY [ZaTa], the “inhibitory effect on catalytic activity of PKAc” value (PKAc) is reported as “did not exhibit any inhibitory effect”, the “changes in phosphorylation level of PKA, PKC and CDKs substrates” value (PKA, PKC, CDKs) is reported as “not observed” and the “dose causing significant decrease in the number of live cells (as low as)” value (N2a cells) is reported as 2 µM. For the same sequence, the “number of live cells 24 hours after removal of treatment versus DMSO vehicle” value (N2a cells; 10 μM, 24 hours treatment then 24 hours without) was “no significant differences” and the “number of live cells, MTT” value (N2a cells; different concentrations) was “dose-dependent decrease in the number of live cells”.
